Reference: ChEMBL document CHEMBL1201862, “PubChem BioAssay data set” (2004)
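Growth conditions: 96-well plates. Treatment: test compound, 48 hours, 5 concentrations. Analysis: linear interpolation between bracketing concentrations; unreached endpoints set to highest concentration. The concentration for 50% growth inhibition is given as GI50.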 Active and inactive are the calls of the source. Rule as the data show it: active = GI50 up to about 1.1 µM and inactive = higher.

Columns and labels:
Experiment in all cases: inhibition of tumour cell growth, NCI panel, 48 h
[1] = tested on: 786-0
[2] = tested on: A498
[3] = tested on: A549
[4] = tested on: ACHN
[5] = tested on: BT-549
[6] = tested on: CAKI-1
[7] = tested on: CCRF-CEM
[8] = tested on: COLO 205
[9] = tested on: DU-145
[10] = tested on: EKVX
[11] = tested on: HCC 2998
[12] = tested on: HCT-116
[13] = tested on: HCT-15
[14] = tested on: HL-60
[15] = tested on: HOP-62
[16] = tested on: HT-29
[17] = tested on: Hs-578T
[18] = tested on: IGROV-1
[19] = tested on: K562
[20] = tested on: KM12
[21] = tested on: LOX IMVI
[22] = tested on: M14
[23] = tested on: MCF7
[24] = tested on: MDA-MB-231
[25] = tested on: MDA-MB-435
[26] = tested on: MDA-N
[27] = tested on: MOLT-4
[28] = tested on: Malme-3M
[29] = tested on: NCI-H226
[30] = tested on: NCI-H23
[31] = tested on: NCI-H460
[32] = tested on: NCI-H522
[33] = tested on: NCI/ADR-RES
[34] = tested on: OVCAR-3
[35] = tested on: OVCAR-4
[36] = tested on: OVCAR-5
[37] = tested on: OVCAR-8
[38] = tested on: PC-3
[39] = tested on: RPMI-8226
[40] = tested on: RXF 393
[41] = tested on: SF-268
[42] = tested on: SF-295
[43] = tested on: SF-539
[44] = tested on: SK-MEL-28
[45] = tested on: SK-MEL-2
[46] = tested on: SK-MEL-5
[47] = tested on: SK-OV-3
[48] = tested on: SN12C
[49] = tested on: SNB-19
[50] = tested on: SNB-75
[51] = tested on: SR
[52] = tested on: SW-620
[53] = tested on: T47D
[54] = tested on: TK-10
[55] = tested on: U-251
[56] = tested on: UACC-257
[57] = tested on: UACC-62
[58] = tested on: UO-31

Measured: GI50

CC(C)C1(C)N=C(C(F)(F)F)c2cc(C(=O)C(F)(F)F)c3ccccc3c2N1 (stereo not drawn)
3.23 µM: [13]
inactive: [1] 3.7 µM | [2] 14.9 µM | [3] 5.43 µM | [4] 3.53 µM | [5] 3.08 µM | [6] 3.34 µM | [7] 15.8 µM | [8] 4.14 µM | [9] 3.71 µM | [10] 4.91 µM | [11] 3.69 µM | [12] 2.94 µM | [14] 4.62 µM | [15] 4.9 µM | [16] 3.44 µM | [17] 2.5 µM | [18] 1.16 µM | [19] 3.96 µM | [20] 3.31 µM | [21] 2.45 µM | [22] 4.99 µM | [23] 4.03 µM | [24] 2.73 µM | [25] 3.21 µM | [26] 3.04 µM | [27] 3.07 µM | [28] 3 µM | [29] 12.9 µM | [30] 2.77 µM | [31] 4.41 µM | [32] 2.3 µM | [33] 2.78 µM | [34] 3.08 µM | [35] 4.91 µM | [36] 11.2 µM | [37] 4.17 µM | [38] 2.52 µM | [39] 3.53 µM | [40] 2.71 µM | [41] 3.02 µM | [42] 3.38 µM | [43] 6.5 µM | [44] 5.22 µM | [45] 2.51 µM | [46] 10.7 µM | [47] 15 µM | [48] 2.91 µM | [49] 4.14 µM | [50] 2.31 µM | [51] 4.39 µM | [52] 5.55 µM | [53] 3.13 µM | [54] 4.51 µM | [55] 2.91 µM | [56] 6.55 µM | [57] 4.33 µM | [58] 5.9 µM
